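Results reflect a 48-hour exposure of cells in 96-well plates to compound at five concentrations. TGI: total growth inhibition.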
Key:
Test in all cases: NCI anticancer screen, dose series, 48 h
786-0 renal = system: 786-0 renal
A498 renal = system: A498 renal
A549 NSCLC = system: A549 NSCLC
ACHN renal = system: ACHN renal
CAKI-1 renal = system: CAKI-1 renal
COLO 205 colon = system: COLO 205 colon
DLD-1 colon = system: DLD-1 colon
DMS 114 small cell lung = system: DMS 114 small cell lung
DMS 273 small cell lung = system: DMS 273 small cell lung
EKVX NSCLC = system: EKVX NSCLC
HCC-2998 colon = system: HCC-2998 colon
HCT-116 colon = system: HCT-116 colon
HCT-15 colon = system: HCT-15 colon
HOP-18 NSCLC = system: HOP-18 NSCLC
HOP-62 NSCLC = system: HOP-62 NSCLC
HOP-92 NSCLC = system: HOP-92 NSCLC
HT29 colon = system: HT29 colon
IGROV1 ovarian = system: IGROV1 ovarian
K-562 leukemia = system: K-562 leukemia
KM12 colon = system: KM12 colon
LOX IMVI melanoma = system: LOX IMVI melanoma
M14 melanoma = system: M14 melanoma
M19-MEL melanoma = system: M19-MEL melanoma
NCI-H226 lung = system: NCI-H226 lung
NCI-H23 lung = system: NCI-H23 lung
NCI-H460 lung = system: NCI-H460 lung
OVCAR-3 ovarian = system: OVCAR-3 ovarian
OVCAR-4 ovarian = system: OVCAR-4 ovarian
OVCAR-5 ovarian = system: OVCAR-5 ovarian
OVCAR-8 ovarian = system: OVCAR-8 ovarian
RPMI-8226 leukemia = system: RPMI-8226 leukemia
RXF 393 renal = system: RXF 393 renal
RXF-631 renal = system: RXF-631 renal
SF-268 CNS = system: SF-268 CNS
SF-295 CNS = system: SF-295 CNS
SF-539 CNS = system: SF-539 CNS
SK-MEL-2 melanoma = system: SK-MEL-2 melanoma
SK-MEL-28 melanoma = system: SK-MEL-28 melanoma
SK-MEL-5 melanoma = system: SK-MEL-5 melanoma
SK-OV-3 ovarian = system: SK-OV-3 ovarian
SN12C renal = system: SN12C renal
SNB-19 CNS = system: SNB-19 CNS
SNB-75 CNS = system: SNB-75 CNS
SNB-78 CNS = system: SNB-78 CNS
SW-620 colon = system: SW-620 colon
TK-10 renal = system: TK-10 renal
U251 CNS = system: U251 CNS
UACC-257 melanoma = system: UACC-257 melanoma
UACC-62 melanoma = system: UACC-62 melanoma
UO-31 renal = system: UO-31 renal
CCRF-CEM leukemia = system: CCRF-CEM leukemia
HL-60(TB) leukemia = system: HL-60(TB) leukemia
KM20L2 colon = system: KM20L2 colon
LXFL 529 NSCLC = system: LXFL 529 NSCLC
MALME-3M melanoma = system: MALME-3M melanoma
MOLT-4 leukemia = system: MOLT-4 leukemia
NCI-H522 lung = system: NCI-H522 lung
SR leukemia = system: SR leukemia
XF 498 CNS = system: XF 498 CNS

With `Cc1cccc(-c2nc3c(C(=O)NCCN(C)C)cccc3[nH]2)c1` as the compound, how does the TGI (786-0 renal) read?
Its TGI is 7.88 µM.

And the TGI (A498 renal)?
The TGI was 3.34 µM.

And the TGI (A549 NSCLC)?
Its TGI is 7.7 µM.

And the TGI (ACHN renal)?
The TGI was 8.46 µM.

And the TGI (CAKI-1 renal)?
The TGI was 10.3 µM.

And the TGI (COLO 205 colon)?
Its TGI is 1.56 µM.

What about the TGI (DLD-1 colon) of the same compound?
Its TGI is 7.95 µM.

What about the TGI (DMS 114 small cell lung) of the same compound?
Its TGI is 2.51 µM.

And the TGI (DMS 273 small cell lung)?
Its TGI is 1.59 µM.

And the TGI (EKVX NSCLC)?
The TGI was 3.5 µM.

What about the TGI (HCC-2998 colon) of the same compound?
Its TGI is 1.95 µM.

And the TGI (HCT-116 colon)?
Its TGI is 1.55 µM.

What about the TGI (HCT-15 colon) of the same compound?
Its TGI is 2.2 µM.

And the TGI (HOP-18 NSCLC)?
The TGI was 4.85 µM.

What about the TGI (HOP-62 NSCLC) of the same compound?
Its TGI is 3.46 µM.

And the TGI (HOP-92 NSCLC)?
The TGI was 3.46 µM.

What about the TGI (HT29 colon) of the same compound?
The TGI was 3.48 µM.

What about the TGI (IGROV1 ovarian) of the same compound?
The TGI was 4.06 µM.

What about the TGI (K-562 leukemia) of the same compound?
The TGI was > 100 µM.

What about the TGI (KM12 colon) of the same compound?
Its TGI is 4 µM.

What about the TGI (LOX IMVI melanoma) of the same compound?
Its TGI is 2 µM.

What about the TGI (M14 melanoma) of the same compound?
The TGI was 2.98 µM.

And the TGI (M19-MEL melanoma)?
The TGI was 3.03 µM.

And the TGI (NCI-H226 lung)?
The TGI was 3.89 µM.

And the TGI (NCI-H23 lung)?
Its TGI is 2.26 µM.

And the TGI (NCI-H460 lung)?
The TGI was 5.99 µM.

What about the TGI (OVCAR-3 ovarian) of the same compound?
The TGI was 6.55 µM.

And the TGI (OVCAR-4 ovarian)?
Its TGI is 3.64 µM.

What about the TGI (OVCAR-5 ovarian) of the same compound?
The TGI was 4.14 µM.

What about the TGI (OVCAR-8 ovarian) of the same compound?
The TGI was 7.02 µM.

And the TGI (RPMI-8226 leukemia)?
The TGI was 9.49 µM.

And the TGI (RXF 393 renal)?
The TGI was 2.47 µM.

And the TGI (RXF-631 renal)?
The TGI was 2.16 µM.

And the TGI (SF-268 CNS)?
Its TGI is 5.28 µM.

And the TGI (SF-295 CNS)?
The TGI was 3.9 µM.

What about the TGI (SF-539 CNS) of the same compound?
Its TGI is 2.04 µM.

And the TGI (SK-MEL-2 melanoma)?
The TGI was 3.26 µM.

And the TGI (SK-MEL-28 melanoma)?
Its TGI is 3.46 µM.

What about the TGI (SK-MEL-5 melanoma) of the same compound?
Its TGI is 3 µM.

And the TGI (SK-OV-3 ovarian)?
The TGI was 6.07 µM.

And the TGI (SN12C renal)?
The TGI was 3.2 µM.

What about the TGI (SNB-19 CNS) of the same compound?
Its TGI is 7.68 µM.

What about the TGI (SNB-75 CNS) of the same compound?
The TGI was 3.73 µM.

What about the TGI (SNB-78 CNS) of the same compound?
Its TGI is 14.6 µM.

And the TGI (SW-620 colon)?
Its TGI is 1.91 µM.

And the TGI (TK-10 renal)?
Its TGI is 4.95 µM.

What about the TGI (U251 CNS) of the same compound?
The TGI was 5.77 µM.

And the TGI (UACC-257 melanoma)?
Its TGI is 3.08 µM.

What about the TGI (UACC-62 melanoma) of the same compound?
Its TGI is 3.2 µM.

And the TGI (UO-31 renal)?
The TGI was 5.05 µM.

How did the TGI (786-0 renal) turn out when `CC(C)N(C(=O)C12C3C4C5(C#N)C3C1(I)C5C42I)C(C)C` (stereo not drawn) was run?
The TGI was > 64.7 µM.

And the TGI (A498 renal)?
The TGI was > 100 µM.

And the TGI (A549 NSCLC)?
The TGI was > 100 µM.

And the TGI (ACHN renal)?
The TGI was > 100 µM.

What about the TGI (CAKI-1 renal) of the same compound?
The TGI was > 100 µM.

And the TGI (CCRF-CEM leukemia)?
Its TGI is > 61.8 µM.

What about the TGI (COLO 205 colon) of the same compound?
The TGI was > 58.9 µM.

And the TGI (DLD-1 colon)?
The TGI was > 100 µM.

And the TGI (DMS 114 small cell lung)?
The TGI was > 59.7 µM.

And the TGI (DMS 273 small cell lung)?
Its TGI is > 100 µM.

What about the TGI (EKVX NSCLC) of the same compound?
Its TGI is > 100 µM.

What about the TGI (HCC-2998 colon) of the same compound?
Its TGI is > 100 µM.

What about the TGI (HCT-116 colon) of the same compound?
Its TGI is 34.3 µM.

And the TGI (HCT-15 colon)?
Its TGI is > 57.7 µM.

What about the TGI (HL-60(TB) leukemia) of the same compound?
The TGI was > 63.6 µM.

What about the TGI (HOP-18 NSCLC) of the same compound?
The TGI was > 100 µM.

And the TGI (HOP-62 NSCLC)?
Its TGI is > 100 µM.

And the TGI (HOP-92 NSCLC)?
Its TGI is > 100 µM.

And the TGI (HT29 colon)?
The TGI was > 100 µM.

What about the TGI (IGROV1 ovarian) of the same compound?
Its TGI is > 100 µM.

What about the TGI (K-562 leukemia) of the same compound?
Its TGI is > 93.3 µM.

And the TGI (KM12 colon)?
The TGI was > 100 µM.

What about the TGI (KM20L2 colon) of the same compound?
Its TGI is > 100 µM.

What about the TGI (LOX IMVI melanoma) of the same compound?
Its TGI is > 66.1 µM.

And the TGI (LXFL 529 NSCLC)?
Its TGI is > 100 µM.

What about the TGI (M14 melanoma) of the same compound?
Its TGI is > 100 µM.

What about the TGI (M19-MEL melanoma) of the same compound?
The TGI was > 100 µM.

And the TGI (MALME-3M melanoma)?
Its TGI is > 100 µM.

And the TGI (MOLT-4 leukemia)?
The TGI was > 100 µM.

What about the TGI (NCI-H226 lung) of the same compound?
Its TGI is > 100 µM.

And the TGI (NCI-H23 lung)?
Its TGI is > 100 µM.

What about the TGI (NCI-H460 lung) of the same compound?
Its TGI is > 100 µM.

And the TGI (NCI-H522 lung)?
The TGI was > 100 µM.

And the TGI (OVCAR-3 ovarian)?
The TGI was > 100 µM.

What about the TGI (OVCAR-4 ovarian) of the same compound?
Its TGI is > 77.4 µM.

What about the TGI (OVCAR-5 ovarian) of the same compound?
The TGI was > 100 µM.

What about the TGI (OVCAR-8 ovarian) of the same compound?
Its TGI is > 100 µM.

What about the TGI (RPMI-8226 leukemia) of the same compound?
The TGI was > 67.2 µM.

And the TGI (RXF 393 renal)?
The TGI was > 100 µM.

What about the TGI (SF-268 CNS) of the same compound?
Its TGI is > 100 µM.

What about the TGI (SF-295 CNS) of the same compound?
Its TGI is > 100 µM.

And the TGI (SF-539 CNS)?
The TGI was > 100 µM.

What about the TGI (SK-MEL-2 melanoma) of the same compound?
The TGI was > 100 µM.

And the TGI (SK-MEL-28 melanoma)?
The TGI was > 100 µM.

What about the TGI (SK-MEL-5 melanoma) of the same compound?
The TGI was > 100 µM.

And the TGI (SK-OV-3 ovarian)?
Its TGI is > 100 µM.

What about the TGI (SN12C renal) of the same compound?
The TGI was > 100 µM.

What about the TGI (SNB-19 CNS) of the same compound?
Its TGI is > 100 µM.

What about the TGI (SNB-75 CNS) of the same compound?
Its TGI is > 100 µM.

What about the TGI (SNB-78 CNS) of the same compound?
The TGI was > 100 µM.

And the TGI (SR leukemia)?
The TGI was > 100 µM.

And the TGI (SW-620 colon)?
The TGI was > 53.1 µM.

And the TGI (TK-10 renal)?
Its TGI is > 100 µM.

And the TGI (U251 CNS)?
The TGI was > 100 µM.

And the TGI (UACC-257 melanoma)?
Its TGI is > 100 µM.

And the TGI (UACC-62 melanoma)?
The TGI was > 100 µM.

What about the TGI (UO-31 renal) of the same compound?
Its TGI is > 100 µM.

And the TGI (XF 498 CNS)?
Its TGI is > 100 µM.
